Data published in patent US20070184080A1, “Post harvest treatment of crops” (AstraZeneca UK Ltd, priority 2002, published 2007).

Tested on: Colletotrichum musae
Test: Field test on inoculated banana hands: severity and incidence of molds and rots after 21 days storage
Type: in vivo
Conditions: 14 Degrees C., 90% RH
From the text: As set forth below, two sample formulations, Formula “C” and Formula “F”, containing paraffin wax, microcrystalline wax, and polybutylene (synthetic butyl rubber) were field tested in a tropical commercial banana operation. The test was designed to test the wax fungicide alternative, “the invention”, versus untreated placebo fruit and identical fruit treated with commercial fungicides. The inoculants were a highly concentrated aqueous Colletotrichum musae spore solution that is grossly more concentrated than actual field processing conditions. […] The test methodology included with four main test groups, each containing a statistically significant number of banana hands (clusters) to compare the relative infestation incidence rate of: • a.) Untreated inoculated fruit. • b.) Modified-wax treated inoculated fruit.—Two Formulas, C and F • c.) Fungicide treated inoculated fruit. • 1.) All of the fruit was inoculated with an aqueous suspension of 20,000 spores per milliliter of Colletotrichum by immersion in said suspension for a minimum of one minute. • 2.) The Formula C and F wax treated fruit was processed by dipping the wet crown of the inoculated banana hands into the molten wax, cooling for one minute, and re-dipping in the molten wax. • 3.) The Fungicide treated fruit was immersed into an aqueous solution of Thiabenzadole at the manufacturer's recommended dosage. • 4. All of the fruit was packaged and stored in a laboratory warehouse for twenty-one days at a temperature of 14 Degrees C. and ninety percent relative humidity. An empirical visual grading scale was employed to record and measure test results for a.) The presence or absence of rots and molds.; and b.) The severity of infestation. Latex staining was also observed and recorded. A visual infestation severity scale of one to five (1-5) was created where: 1=clean crown, and 5=severely rotten crown. After incubation, the banana producer's trained laboratory technicians graded the fruit and the aggregate results were compiled as presented below.

c1ccc2[nH]c(-c3cscn3)nc2c1 [Thiabenzadole]
Severity Crown Mold (Procedure I = Inoculated (20,000 spores/ml Colletotrichum), 1=clean crown, 5=severely rotten crown): 3.7 Scale 1-5 | INCIDENCE Crown Mold (Procedure I = Inoculated): 92.2% | INCIDENCE Crown Rot (Procedure I = Inoculated): 100% | INCIDENCE Neck Rot (Procedure I = Inoculated): 27.2% | INCIDENCE Peel Rot (Procedure I = Inoculated): 84% | Severity Crown Rot (Procedure I = Inoculated, 1=clean crown, 5=severely rotten crown): 3.92 Scale 1-5
